Assay results from patent publication US20220409657A1, “INSTRUCTIONS FOR COMPOSITION AND SENSITIVITY” (Azura Ophthalmics Ltd., priority 2020, published 2022).
Read-outs that look alike come from different tables or passages of the source.

What was measured:
[1] = in vivo; cited from earlier work
animals = conditions: in vivo; cited from earlier work
rabbits = conditions: dose about 4 mg, concentration up to 2.5 wt. %, ointment over the eyelid margin
seborrheic blepharitis = conditions: cited from earlier work
human subjects [2] = conditions: in vivo
Excerpt: An additional 2 or 3 additional cases of adverse effects. Of these subjects, 2 had keratitis following the 1st in-office application and another patient deteriorate following the 2nd in-office application although the subject kept on another dose or two at home before coming with pain to be examined (a typical scenario when keratitis evolves).

[3] = tested on: meibomian gland disorder (MGD) patients; conditions: twice a week, 3 month time point
Experimental: The drug was applied twice a week and final evaluation was done at the 3 month time point in which the primary outcome of Meibomian Gland Score (MGS) was assessed.

study patients = conditions: in vivo
Experimental: In a first study patients were instructed to dose in both the evening, between visits, and in the daytime during regular scheduled clinic visits as part of the study protocol. Study patients received a 2-week run-in on a placebo which was administered twice weekly for a period of two weeks.
Adverse events comprise a feeling of grittiness, foreign body feeling, stinging, blurry vision, redness, tired eyes, water eyes, irritation, lid abnormalities, burning, corneal abrasion, photophobia, staining, or dry eye disorder (DED).

human subjects [4] = tested on: human subjects
Excerpt: In a clinical study three different concentrations were used; 0.1 wt. %, (10 subjects) 0.5 wt. % (12 subjects) and 1 wt. % (26 subjects).

human subject = tested on: human subject
Experimental: In most instances, the treatment is applied on a biweekly basis, however some patients move to daily application based on prespecified protocol criteria. Because the ointment-based composition is known to mix with tear fluid and cause blurry vision, individuals in this study are advised to apply the treatment prior to bed so as to avoid risks associated with reduced vision acuity. […] The in-office applications are conducted at specific, pre-determined time points. In these instances, the treatment is not applied before bed but rather is performed during daylight hours.

Question: What does the source list for selenium disulfide [SeS2]?
Answer: contact dermatitis [1]: can produce contact dermatitis; contact or photo-contact dermatitis in tinea versicolor treatment [1]: None of the investigators encountered a single case; hair loss after shampooing [1]: diffuse hair loss; skin reaction after shampoo applied three consecutive nights [1]: developed circumscribed eczematous plaques; safe concentration for use in humans (animals): 0.5%; tolerability (rabbits): well tolerated; treatment of seborrheic blepharitis (seborrheic blepharitis; SeS2 0.5%): effective; adverse events following topical ocular use (seborrheic blepharitis; human, in vivo): superficial punctate keratitis and conjunctivitis; additional cases of adverse effects (human subjects [2]): 2-3 cases; subjects with keratitis following the 1st in-office application (human subjects [2]): 2 subjects; average change from baseline in Meibomian Gland Score (MGS) ([3]; 9 patients using finger): 10 (+/− 8.2); average change from baseline in Meibomian Gland Score (MGS) ([3]; 13 patients using applicator): 2.3 (+/− 4.4); reduction in the incidence of ocular adverse events (study patients): 75%; reduction of discontinuations from adverse events (DC for AE) (study patients): at least 50%; reduction of rates of ocular adverse events (ocular AE) (study patients): at least 50%; adverse events during the first month (human subjects [4]; human, in vivo): no adverse events; initiation of pain after the application (human subjects [4]; human, in vivo): 6 to 20 h; keratitis after in-office, daytime applications (human subjects [4]; human, in vivo): no development of keratitis; keratitis in bedtime applications (human subjects [4]; human, in vivo): without a single occurrence of keratitis; subjects who developed keratitis or keratitis related symptoms (human subjects [4]; human, in vivo): four; time from in-office morning application to significant pain (human subjects [4]; human, in vivo): About 7 hours; total OSDI, VAS and SPEED (human subjects [4]; one patient, 1 wt. %, first month, twice weekly at home before bedtime): significant improvement; keratitis (human subject; 0.1 wt. % concentration): Keratitis is not observed; keratitis (human subject; 0.5 wt. % concentration): Keratitis is not observed; patients noting symptoms of keratitis (human subject; 1 wt. % cohort, following in-office assessment): four; bedtime applications resulting in keratitis (human subject; 400 or more bedtime applications): none; health outcomes by OSDI, VAS and SPEED (human subject; at least one patient, one month of treatment, 1 wt. %): improved health outcomes; time from in-office assessment to significant pain near the treated area (human subject; one patient, 1 wt. %): ≤ 7 h
